“Also recorded” adds a separate entry of the source. Marks after values point to notes of the source that are not given here.
Assays:
isolated portal veins = assay: Contractile tension of isolated portal veins; set-up: species or system Male Wistar rats; details: for Effect of antagonist on 5-HT induced contraction of isolated portal vein: pre-incubation with antagonist for 20 minutes before 5-HT; for Effect of antagonist on 8-OH-DPAT induced contraction of isolated portal vein: pre-incubation with antagonist for 20 minutes before 8-OH-DPAT; for Effect of antagonist on F11440 induced contraction of isolated portal vein: pre-incubation with antagonist for 20 minutes before F11440; for Effect of agonist on contractile tension of isolated portal vein: cumulative concentrations, 3 minutes each, agonist alone
Source text: Effects of the selective agonist and antagonist of HTR1A on contractile tension of isolated portal vein.
1) Male Wistar rats, weighting 140 g to 160 g, were anesthetized with inhalational isopentane through a mask. The portal veins were gently isolated from the animals and 3-5 mm of the vessel was removed under the anatomical microscope from the connective tissue, and then the vessel was placed in a cold Tyrode solution (NaCl: 148.9, KCl: 2.7, CaCl2: 1.8, NaPO4H2: 0.2, NaCO3H: 11.9, MgCl2: 1.2, glucose: 5.5 mM). Isolated portal veins were mounted in 20 ml jacketed tissue baths containing the appropriate Tyrode solution (37±0.5° C., PH=7.4) constantly bubbled with O2, by suspending them between two L-shaped stainless-steel hooks. The lower hooks were fixed and the upper hooks were attached to force-displacement transducers. Isometric force was measured and recorded using the ALC-MPA software associated with the equipment.
2) A pre-load of 1 g was applied. After mounting, isolated portal veins were equilibrated for […]. The contractile response to depolarizing potassium solution was then assessed as a test for viability. The depolarizing KCl solution (80 mM) had the same composition as the Tyrode solution used, except for the NaCl that had been completely replaced by an equimolar amount of KCl. The iPVs were washed with Tyrode solution four times and re-equilibrated for another […].
3) To evaluate the effects of 5-HT or HTR1A agonist on the contraction of iPVs, serotonin or selective agonist of HTR1A (8-OH-DPAT and F11440) was directly administrated into the tissue baths for 3 minutes in cumulatively concentrations, and the magnitude of contractile tension was recorded. To evaluate the effects of HTR1A antagonist, a pre-incubation with selective antagonist of HTR1A (WAY 100635 and NAD 299) for 20 minutes was used before increasing administration of 5-HT or HTR1A agonist.
4) 5-HT, selective agonist of HTR1A (8-OH-DPAT and F11440), and selective antagonist of HTR1A (WAY 100635 and NAD 299) were purchased from Sigma, Selleck, Tocris, and TargetMol, respectively.

[1] = system: cirrhotic portal hypertensive rats induced by carbon tetrachloride (CCl4); assay: Portal pressure in cirrhotic portal hypertensive rats induced by carbon tetrachloride (CCl4), antagonists (Example 2); type: in vivo, Male Wistar rats; details: CCl4 model; for Effect on portal pressure / Portal pressure: WAY 100635 1 mg/kg i.p.; for Effect on portal pressure: alverine 15 mg/kg by gavage, once per day; for Portal pressure: alverine 15 mg/kg p.o., means ±SEM; for Portal pressure / Effect on portal pressure compared with carvedilol: carvedilol 10 mg/kg p.o.; for Portal pressure / Change of portal pressure vs. Vehicle: once per day for one week; for Change of portal pressure vs. Vehicle: same dosing
Source text: 1) Self-made portal pressure measuring kit, which contains 24-Gauge scalp vein set (Y type) and catheter, and high-sensitive pressure sensor, biological signal processing system (SMUP-U, Jide experimental teaching equipment factory, Shanghai, China) were used to measure the portal pressure in rats. 2) Connect all the catheters and device, check the tightness and set zero, then open the portal pressure measuring kit, connect the catheter with the scalp vein set and high-sensitive pressure sensor, following the connection between pressure sensor and biological signal processing system. Fill all the catheters with heparin sodium saline (volume of heparin sodium and saline: 1.25 WU: 500 ml), eliminate the air bubbles and close the catheter. Then remove the needle in the scalp vein set, place it horizontally at the portal vein height of the rat (supine position). The zero point was set after opening the catheter in the biological collection system software. 3) Rats were anesthetized with inhalational isopentane through a mask. A midline abdominal incision was made, and the portal vein was cannulated with a 24-Gauge scalp vein set, connecting with a catheter filled heparin-saline, to measure PP. Effects of the selective antagonist of HTR1A WAY 100635, and alverine on portal pressure (PP) in cirrhotic portal hypertensive rats induced by carbon tetrachloride (CCl4). 1) Thirty-one male Wistar rats, weighting 140 g to 160 g, were randomly divided into normal control group (N=7) and CCl4 group (N=24). Rats in CCl4 group were subjected to intraperitoneally (i.p.) injections of CCl4 at 0.25 ml/kg (diluted 1:3 v/v in olive oil) twice per week for 12 weeks to induce cirrhotic portal hypertension, while the normal controls received injections of olive oil at the same timepoint. At the beginning of the eleventh week, rats in CCl4 group were randomly divided into four groups: Vehicle group (N=7), Alverine group (N=6), WAY 100635 group (N=5), and carvedilol group (N=6). 2) Alverine was diluted in sterile normal saline at a concentration of 5 mg/ml and delivered to the rats in Alverine group via gavage (p.o.). WAY 100635 was diluted in sterile normal saline at a concentration of 1 mg/ml and peritoneally injected (i.p.) into the rats in WAY 100635 group. Carvedilol was diluted in sterile normal saline at a concentration of 1 mg/ml and delivered to the rats in carvedilol group via gavage. 3) Rats in the Alverine group, WAY 100635 group, and carvedilol group were received alverine 15 mg/kg p.o.+saline i.p., saline p.o.+WAY 100635 1 mg/kg i.p., carvedilol 10 mg/kg p.o.+saline i.p., respectively once per day for one week, while rats in vehicle group received saline p.o. and saline i.p. at the same timepoint. 4) After one-week treatment, portal pressure of all the rats were measured and rats were sacrificed for liver tissues. Similar as that in embodiment example 1.

[2] = system: cirrhotic portal hypertensive rats induced by thioacetamide (TAA); assay: Portal pressure in cirrhotic portal hypertensive rats induced by thioacetamide (TAA); type: in vivo, Male Wistar rats; details: TAA model; for Effect on portal pressure / Portal pressure: WAY 100635 1 mg/kg i.p.; for Effect on portal pressure: alverine 15 mg/kg by gavage, once per day; for Portal pressure: alverine 15 mg/kg p.o., means ±SEM; for Portal pressure / Effect on portal pressure compared with carvedilol: carvedilol 10 mg/kg p.o.; for Portal pressure / Change of portal pressure vs. Vehicle: once per day for one week; for Change of portal pressure vs. Vehicle: same dosing
Method: Effects of the selective antagonist of HTR1A WAY 100635, and alverine on portal pressure (PP) in cirrhotic portal hypertensive rats induced by thioacetamide (TAA).
Male Wistar rats, weighting about 140 to 160 grams (g) each, were purchased from SLAC Laboratory Animal Co., Ltd (Shanghai, China) and housed under standard animal laboratory conditions in the experimental animal center of Second Military Medical University (Shanghai, China). All animal experiments in this study were performed in accordance with protocols approved by the local Ethical Committee of the Second Military Medical University.
1) Thirty-five male Wistar rats, weighting 140 g to 160 g, were randomly divided into normal control group (N=8) and TAA group (N=27). Rats in TAA group were subjected to intraperitoneally (i.p.) injections of TAA (purchase from […]) at 200 mg/kg, which is diluted in sterile normal saline (NS; 0.9% sodium chloride), 3 times per week for 16 weeks to induce cirrhotic portal hypertension. The normal controls received injections of NS at the same timepoint. At the beginning of the 17th week, rats in TAA group were randomly divided into four groups: Vehicle group (N=7), Alverine group (N=7), WAY 100635 group (N=7), and carvedilol group (N=6).
2) Alverine (purchase from TargetMol) was diluted in the saline at a concentration of 5 mg/ml and delivered to the rats in Alverine group via gavage (p.o.). WAY 100635 (purchase from Selleck) was diluted in sterile normal saline at a concentration of 1 mg/ml and peritoneally injected (i.p.) into the rats in WAY 100635 group. Carvedilol (purchase from TargetMol) was diluted in sterile normal saline at a concentration of 1 mg/ml and delivered to the rats in carvedilol group via gavage.
3) Rats in the Alverine group, WAY 100635 group, and carvedilol group were received alverine 15 mg/kg p.o.+saline i.p., saline p.o.+WAY 100635 1 mg/kg i.p., carvedilol 10 mg/kg p.o.+saline i.p., respectively once per day for one week, while rats in vehicle group received saline p.o. and saline i.p. at the same timepoint.
4) After one-week treatment, portal pressure of all the rats were measured and rats were sacrificed for liver tissues.
(§1) 1) Self-made portal pressure measuring kit, which contains 24-Gauge scalp vein set (Y type) and catheter, and high-sensitive pressure sensor, biological signal processing system (SMUP-U, Jide experimental teaching equipment factory, Shanghai, China) were used to measure the portal pressure in rats.
(§2) 2) Connect all the catheters and device, check the tightness and set zero, then open the portal pressure measuring kit, connect the catheter with the scalp vein set and high-sensitive pressure sensor, following the connection between pressure sensor and biological signal processing system. Fill all the catheters with heparin sodium saline (volume of heparin sodium and saline: 1.25 WU: 500 ml), eliminate the air bubbles and close the catheter. Then remove the needle in the scalp vein set, place it horizontally at the portal vein height of the rat (supine position). The zero point was set after opening the catheter in the biological collection system software.
3) Rats were anesthetized with inhalational isopentane through a mask. A midline abdominal incision was made, and the portal vein was cannulated with a 24-Gauge scalp vein set, connecting with a catheter filled heparin-saline, to measure PP.
Data were presented as the means ±SEM. One-way analysis of variance (ANOVA) and student's t-tests were performed to compare data between two groups, and a P value of less than 0.05 was considered statistically significant.

[3] = system: cirrhotic portal hypertensive rats induced by carbon tetrachloride (CCl4); assay: Portal pressure in cirrhotic portal hypertensive rats induced by CCl4, agonist 8-OH-DPAT (Example 3); type: in vivo, Male Wistar rats; details: CCl4 model
Source text: as §1, §2
3) Rats were anesthetized with inhalational isopentane through a mask. A midline abdominal incision was made, and the portal vein was cannulated with a 24-Gauge scalp vein set, connecting with a catheter filled heparin-saline, to measure PP. […]
4) After one-week treatment, portal pressure of all the rats were measured and rats were sacrificed for liver tissues. […]

## NC(=O)c1ccc(F)c2c1C[C@@H](N(C1CCC1)C1CCC1)CO2 [NAD 299]
Isolated portal veins
  Effect of antagonist on 5-HT induced contraction of isolated portal vein: abrogated
  Effect of antagonist on 8-OH-DPAT induced contraction of isolated portal vein: almost completely inhibited
  Effect of antagonist on F11440 induced contraction of isolated portal vein: almost completely inhibited

## NCCc1c[nH]c2ccc(O)cc12 [5-HT, 5-hydroxytryptamine]
Isolated portal veins
  Effect of agonist on contractile tension of isolated portal vein: concentration-dependent contraction

## COc1ccccc1N1CCN(CCN(C(=O)C2CCCCC2)c2ccccn2)CC1 [WAY 100635]
[1]
  Effect on portal pressure: significantly decrease
  Portal pressure: 7.36 ± 2.14 cmH2O
  Effect on portal pressure compared with carvedilol: not significantly different
  Change of portal pressure vs. Vehicle: (−37.88%^#, P = 0.0125)
Isolated portal veins
  Effect of antagonist on 5-HT induced contraction of isolated portal vein: abrogated
  Effect of antagonist on 8-OH-DPAT induced contraction of isolated portal vein: almost completely inhibited
  Effect of antagonist on F11440 induced contraction of isolated portal vein: almost completely inhibited
[2]
  Effect on portal pressure: significantly decreased
  Portal pressure: 13.27 ± 3.00 cmH2O
  Effect on portal pressure compared with carvedilol: not significantly different
  Change of portal pressure vs. Vehicle: (−37.04%^#, P = 0.0001)

## CCN(CCCc1ccccc1)CCCc1ccccc1 [Alverine]
[1]
  Effect on portal pressure: significantly decrease
  Portal pressure: 6.94 ± 0.98 cmH2O
  Effect on portal pressure compared with carvedilol: not significantly different
  Change of portal pressure vs. Vehicle: (−41.44%*, P = 0.0065)
[2]
  Effect on portal pressure: significantly decreased
  Portal pressure: 12.98 ± 1.74 cmH2O
  Effect on portal pressure compared with carvedilol: not significantly different
  Change of portal pressure vs. Vehicle: (−38.39%^#, P < 0.0001)

## Cn1c(=O)cnn(CCCCN2CCN(c3ncccn3)CC2)c1=O [F11440]
Isolated portal veins
  Effect of agonist on contractile tension of isolated portal vein: considerably increased the contractile force of iPVs in a concentration-dependent manner

## CCCN(CCC)C1CCc2cccc(O)c2C1 (stereo not shown) [8-OH-DPAT]
Isolated portal veins
  Effect of agonist on contractile tension of isolated portal vein: considerably increased the contractile force of iPVs in a concentration-dependent manner
[3]; 8-OH-DPAT 1 mg/kg i.p. once per day
  Effect on portal pressure: increased; also recorded: significantly increase
[3]; 8-OH-DPAT 1 mg/kg i.p. once per day for one week, means ±SEM
  Portal pressure: 11.66 ± 1.89 cmH2O

## COc1ccccc1OCCNCC(O)COc1cccc2[nH]c3ccccc3c12 (stereo not shown) [Carvedilol]
[1]
  Portal pressure: 7.99 ± 1.37 cmH2O
  Change of portal pressure vs. Vehicle: (−32.58%^#, P = 0.0200)
[2]
  Portal pressure: 14.01 ± 4.14 cmH2O
  Change of portal pressure vs. Vehicle: (−33.54%^#, P = 0.0025)
